Experimental data as given in patent publication US8003331B2, “Method for identifying target protein of drug and method for screening therapeutic agent for diabetes using the target protein” (Astellas Pharma Inc., priority 2005, dated 2011).
“Also recorded” adds a separate entry of the source.

Experiments:
human ATP5B [1] = target: T1, human ATP5B (Homo sapiens, UniProt P06576); experiment: competitive inhibition of binding of ATP5B and MTX-phenformin; details: MTX-phenformin 10 μM; free phenformin 10 μM; compounds A and B 'addition of 10'
T1 construct: an attempt was made to amplify complete length cDNA of human ATP5B; made in house; host or cells: cell-free: TNT Quick Coupled Transcription/Translation System (Promega) from pcDNA-ATP5B; GST-DHFR from E. coli BL21

AMPK = AMPK activation ability detection in HeLa S3 cell (anti-phospho AMPK western blotting); assay type: cell-based, human; details: phenformin 1 mM, 1 hr; for phosphorylation level (activation) of AMPK: HeLa S3 cell without ATP5B over-expression (empty vector- or pcDNA-LKB1-transferred), concentration of compounds A and B not given; for activation of AMPK in cell over-expressing human ATP5B: pcDNA-ATP5B-transferred HeLa S3 cell, metformin 10 mM
Protocol: This expression plasmid pcDNA-LKB1 and the pcDNA-ATP5B prepared in the aforementioned Example 5(1) or an empty vector (pcDNA3.1) (Invitrogen) were transferred into HeLa S3 cell. The HeLa S3 cell (ATCC) was cultured in a 6 well culture plate (35 mm in well diameter) until it reached a state of 70% confluent, by adding 2 ml of a minimum essential medium DMEM (Gibco) containing 10% fetal bovine serum (Sigma) to each well of the culture plate. The medium was substituted by 1 ml per well of a serum-free medium OPTI MEM I (Invitrogen), and 3.0 μg/well of each of the empty vector (pcDNA3.1), pcDNA-LKB1 and pcDNA-ATP5B was transiently transferred using Lipofect amine 2000 (Invitrogen). After 12 hours of the culturing, this was substituted by 2 ml/well of DMEM containing 10% of fetal bovine serum from which low molecular substances had been removed by a charcoal treatment, and further cultured for 36 hours. This was further cultured for 1 hour (1 hr) under a condition of adding phenformin (Sigma) to a final concentration of 1 mM or the solvent (DMSO) alone. The medium was discarded, the cells were washed with a phosphate buffer (to be referred to as PBS hereinafter, and then the cells were lysed by adding 0.15 ml of the aforementioned buffer A (however, the NaCl concentration was 150 mM, and various phosphatase inhibitors; 2 mM Na3VO4, 10 mM NaF, 25 mM β-glycerophosphate, 0.2 mM Na2MoO4, 20 nM okadaic acid, were added). The activity of AMPK in the cells was detected at the level of phosphorylation of molecules by a conventionally known SDS electrophoresis and a western blotting which uses an anti-phosphorylation AMPK antibody (Phospho-AMPK-α(Thr172) Antibody, Daiichi Pure Chemicals). In this case, in order to confirm that there is no difference in the amount of protein of AMPKα (an AMPK subunit which undergoes phosphorylation) among samples, a western blotting which uses an anti-AMPKα antibody (Daiichi Pure Chemicals) was simultaneously carried out. […] However, in the cell in which human ATP5B was expressed by transferring pcDNA-ATP5B, activation of AMPK by phenformin treatment was not found.

db/db mouse = experiment: blood sugar level and blood lactic acid level in db/db mouse after intraperitoneal administration; assay type: in vivo; details: db/db mice, fasting, metformin 300 mg/kg; for blood lactic acid level: compound 100 mg/kg, 0, 90, 180 minutes; for hypoglycemic action (blood sugar level): compound 100 mg/kg, 90 and 180 minutes, vs vehicle group
Source text: As described in the aforementioned Example 6, the compound A and compound B found by the screening method of the present invention have the ability to activate AMPK in cells. Next, whether or not these compounds have the in vivo hypoglycemic action similar to the case of biguanide was examined. At the same time, action of the aforementioned 2 compounds on the increase of blood lactic acid value as an adverse side effect of biguanide was also examined. A total of 15 animals of 11 weeks of age of db/db mouse (BKS.Cg-+Leprdb/+Leprdb/Jcl; CLEA Japan) as a diabetes model mouse were divided into 3 groups, each consisting of 5 animals. […] They were subjected to fasting at the same time with the administration, and blood samples were collected from the tail of each animal 0 minute, 90 minutes and 180 minutes thereafter to measure blood sugar level and blood lactic acid level. The blood sugar level was measured using a simplified blood sugar analyzer (Acu Check Active II; Roche), and the blood lactic acid level was measured using a simplified lactic acid analyzer (Lactate Pro; Arkray Marketing), respectively. In the same manner, 12 animals of the db/db mouse of 18 weeks of age were divided in 3 groups, 4 animals for each. […] In the same manner as the above, they were subjected to fasting at the same time with the administration, and the blood sugar level and blood lactic acid level were respectively measured 0 minute, 90 minutes and 180 minutes thereafter in the same as described in the above.

TNF-α = TNF-α gene expression in HeLa S3 cell (real time PCR, corrected by β-actin); assay type: cell-based, human; details: okadaic acid 50 nM
Protocol: The pcDNA-TARDBP or an empty vector (pcDNA3.1) (Invitrogen) was transferred into HeLa S3 cell. Illustratively, the HeLa S3 cell (ATCC) was firstly cultured in a 12 well culture plate until it reached a state of 70% confluent, by adding 1 ml of a minimum essential medium DMEM (Gibco) containing 10% fetal bovine serum (Sigma) to each well of the culture plate. The medium was substituted by 0.5 ml per well of a serum-free medium OPTI MEM I (Invitrogen), and 0.8 μg/well of the pcDNA-TARDBP or pcDNA3.1 was transiently transferred using Lipofect amine 2000 (Invitrogen). After 12 hours of the culturing, this was substituted by 1 ml/well of DMEM containing 10% of fetal bovine serum and further cultured for 12 hours. This was further cultured for 16 hours under a condition of adding or not adding okadaic acid (Wako Pure Chemical Industries) to a final concentration of 50 nM. In this case, […] was added a part of the cells simultaneously with the okadaic acid treatment. The medium was discarded, the cells were washed twice with ice-cooled PBS, and then these cells were frozen and stored at −80° C.
Total RNA was prepared from each cell frozen in the aforementioned Example 9(2), using a reagent for RNA extraction use (Isogen; Nippon Gene) and in accordance with the instructions attached thereto. The thus prepared each total RNA was then treated with a deoxyribonuclease (Nippon Gene), subjected to phenol/chloroform treatment and ethanol precipitation and dissolved in sterile water. Using 1 μg of this total RNA, its reverse transcription into a single-stranded cDNA was carried out in a system of 20 μl using a kit for reverse transcription reaction use (Advantage™ RT-for-PCR Kit; Clontech).
Six oligonucleotides (SEQ ID NO:97 to SEQ ID NO:102) were designed and synthesized as primers of PCR for the measurement of gene expression quantity. A combination of SEQ ID NO:97 and SEQ ID NO:98 was used for human β-actin gene, and a combination of SEQ ID NO:99 and SEQ ID NO:100 for human TNF-α gene, and a combination of SEQ ID NO:101 and SEQ ID NO:102 for human TARDBP gene, respectively. […]
The expression quantities of human TNF-α gene and human TARDBP gene in each sample were corrected by the expression quantity of β-actin gene based on the following equation. [Corrected expression quantity of TNF-α or TARDBP]=[expression quantity of TNF-α or TARDBP gene (raw data)/[expression quantity of β-actin gene (raw data)]
In comparing the expression quantities of TNF-α and TARDBP genes, relative amounts were calculated by regarding the expression quantity in a cell, into which an empty vector (pcDNA3.1) was transferred and which was treated only with the solvent (DMSO), as 100, with the results sown in FIG. 9 and FIG. 10. […]

human ATP5B [2] = target: T1, human ATP5B; experiment: GST-DHFR / MTX-phenformin GST pull-down of 35S-labeled ATP5B; assay type: binding
Protocol: Promega) and 0.74 MBq of a radioisotope (redivue Pro-mix L-[35S]; Amersham) and in accordance with the protocols attached thereto. A 15 μl portion of this human ATP5B protein preparation liquid and 1 μg for each of the GST protein or GST-DHFR, purified on the glutathione Sepharose beads, were mixed and shaken at 4° C. for 1 hour after adding 0.3 ml of buffer A thereto. Thereafter, the protein binding to the GST protein or GST-DHFR on beads was co-precipitated by centrifugation. After repeating this operation 4 times, proteins in the precipitate were separated by SDS polyacrylamide gel electrophoresis in accordance with a conventionally known method, and the protein bound to the probe was detected by an autoradiography.

| binding to the ATP5B protein with increasing concentration (human ATP5B [2]; MTX-phenformin 1.0, 10, 100 μM) | Compound | influence on binding of ATP5B and MTX-phenformin (human ATP5B [1]) | phosphorylation level (activation) of AMPK (AMPK) | activation of AMPK in cell over-expressing human ATP5B (AMPK) | blood lactic acid level (db/db mouse) | hypoglycemic action (blood sugar level) (db/db mouse) | action to accelerate expression of TNF-α (TNF-α; TARDBP high expression cell, compared with control cell) | increase of expression of TNF-α (TNF-α; control cell (empty vector HeLa S3), 16 hours) | binding with human ATP5B (band of about 60 kDa, autoradiography) (human ATP5B [2]; 10 μM MTX-phenformin fixed to GST-DHFR, wild type ATP5B) |
| --- | --- | --- | --- | --- | --- | --- | --- | --- | --- |
|  | Oc1ccccc1/C=N/c1nc[nH]n1 [compound A, 2-[(E)-(1H-1,2,4-triazol-3-ylimino)methyl]phenol] | obstruct binding of ATP5B and MTX-phenformin | significant AMPK activation ability | disappeared | did not induce increase; also recorded: without causing in vivo accumulation of lactic acid | hypoglycemic action after 90 minutes and 180 minutes having a significant difference; also recorded: show hypoglycemic action |  |  |  |
|  | C=C1[C@@H](O)[C@@H]2O[C@]3(CC[C@H](/C=C/[C@@H](C)[C@@H]4CC(C)=C[C@@]5(O[C@H](C[C@@](C)(O)C(=O)O)CC[C@H]5O)O4)O3)CC[C@H]2O[C@@H]1[C@@H](O)C[C@H](C)[C@H]1O[C@@]2(CCCCO2)CC[C@H]1C [okadaic acid] |  |  |  |  |  | almost the same | up to 80 times |  |
|  | CN(C)C(=N)N=C(N)N [metformin] |  |  | not found | significant increase | significant hypoglycemic action |  |  |  |
| clearly detected | CN(Cc1cnc2nc(N)nc(N)c2n1)c1ccc(C(=O)N[C@@H](CCC(=O)NCCCNC(=N)NC(=N)N)C(=O)O)cc1.Cl.Cl [MTX-phenformin, (2S)-5-[(3-{[{[amino(imino)methyl]amino}(imino)methyl]amino}propyl)amino]-2-({4-[[(2,4-diaminopteridin-6-yl)methyl](methyl)amino]benzoyl}amino)-5-oxopentanonic acid dihydrochloride] |  |  |  |  |  |  |  | detected in the form of binding to the GST-DHFR, only under the condition of adding the MTX-phenformin |
|  | Nc1nc(Cl)c2nc[nH]c2n1 [compound B, 6-chloro-9H-purine-2-amine] | obstruct binding of ATP5B and MTX-phenformin | significant AMPK activation ability | disappeared |  | hypoglycemic action after 90 minutes and 180 minutes having a significant difference; also recorded: show hypoglycemic action |  |  |  |
